Values joined by “and” are separate entries in the source; they are usually repeats but may differ in a detail not shown here. Equal values may be shown once. Inconclusive results and toxic doses are left out. The calls were made as follows: active = survival T/C of 150% or more; inactive = T/C below 125% in these data. Peptide text beside a SMILES is read from it.
System: P388 leukemia ip, CD2F1 mice, survival T/C
Assay: NCI In Vivo Anticancer Drug Screen. Data for tumor model P388 Leukemia (intraperitoneal) in CD2F1 (CDF1) mice
Settings: endpoint: median survival time, higher = longer survival
Method in brief: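 Mice carrying the transplanted tumor received test compound or vehicle. Survival was recorded in each group, and the value is the treated-group measurement divided by that of the vehicle-treated control group.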

[1] = dose: 12.5 mg/kg/injection, schedule: Q01DX009 (ip), vehicle: saline with Tween-80
[2] = dose: 50.0 mg/kg/injection, schedule: Q01DX009 (ip), vehicle: saline with Tween-80
[3] = dose: 50.0 mg/kg/injection, schedule: Q01DX005 (ip), vehicle: saline with Tween-80
[4] = dose: 100.0 mg/kg/injection, schedule: Q01DX005 (ip), vehicle: saline with Tween-80

Measured: T/C

CC1CCC(=O)N1C (stereo not drawn)
inactive: dose: 100.0 mg/kg/injection, schedule: Q01DX009 (ip), vehicle: saline 105 % of control | dose: 200.0 mg/kg/injection, schedule: Q01DX009 (ip), vehicle: saline 100 % of control | dose: 400.0 mg/kg/injection, schedule: Q01DX009 (ip), vehicle: saline 113 % of control

CCC(C)N(CCCOC(=O)c1ccc(N)cc1)C(C)CC (stereo not drawn)
inactive: [1] 109 % of control | dose: 12.5 mg/kg/injection, schedule: Q04DX003 (ip), vehicle: saline 100 % of control | dose: 25.0 mg/kg/injection, schedule: Q01DX009 (ip), vehicle: saline with Tween-80 100 % of control | dose: 25.0 mg/kg/injection, schedule: Q04DX003 (ip), vehicle: saline 91 % of control | [2] 104 % of control | dose: 50.0 mg/kg/injection, schedule: Q04DX003 (ip), vehicle: saline 91 % of control

CN1C(=O)C(=O)N(CCCN2CCN(CCCN3C(=O)C(=O)N(C)C3=O)CC2)C1=O
inactive: dose: 50.0 mg/kg/injection, schedule: Q01DX009 (ip), vehicle: Klucel (hydroxypropylcellulose) (HPC) 104 % of control | dose: 100.0 mg/kg/injection, schedule: Q01DX009 (ip), vehicle: Klucel (hydroxypropylcellulose) (HPC) 106 % of control | dose: 200.0 mg/kg/injection, schedule: Q01DX009 (ip), vehicle: Klucel (hydroxypropylcellulose) (HPC) 98 % of control

C1CCCc2c(-c3n[nH]c4c3CCCCCC4)n[nH]c2CC1
inactive: dose: 60.0 mg/kg/injection, schedule: Q01DX005 (ip), vehicle: saline with Tween-80 100 % of control | dose: 120.0 mg/kg/injection, schedule: Q01DX005 (ip), vehicle: saline with Tween-80 95 % of control | dose: 240.0 mg/kg/injection, schedule: Q01DX005 (ip), vehicle: saline with Tween-80 100 % of control

N=C(N)c1ccc(Oc2ccc(Oc3ccc(C(=N)N)cc3)cc2)cc1
inactive: dose: 3.13 mg/kg/injection, schedule: Q01DX009 (ip), vehicle: saline with Tween-80 109 % of control | dose: 3.13 mg/kg/injection, schedule: Q01DX009 (ip), vehicle: saline 102 % of control | dose: 6.25 mg/kg/injection, schedule: Q01DX009 (ip), vehicle: saline with Tween-80 109 % of control | dose: 6.25 mg/kg/injection, schedule: Q01DX009 (ip), vehicle: saline 113 % of control | [1] 124 % of control

CCN(CC)CCN1c2ccc(C)cc2Sc2ccc3ccccc3c21
inactive: dose: 50.0 mg/kg/injection, schedule: Q01DX005 (ip), vehicle: saline + Tween-80 + alcohol 112 % of control | dose: 100.0 mg/kg/injection, schedule: Q01DX005 (ip), vehicle: saline + Tween-80 + alcohol 102 % of control | dose: 200.0 mg/kg/injection, schedule: Q01DX005 (ip), vehicle: saline + Tween-80 + alcohol 114 % of control

O=[N+]([O-])O.[Ga]
inactive: dose: 6.25 mg/kg/injection, schedule: Q01DX005 (ip), vehicle: saline 100 % of control | dose: 6.25 mg/kg/injection, schedule: Q01DX010 (ip), vehicle: saline 100 % of control | dose: 12.5 mg/kg/injection, schedule: Q01DX005 (iv), vehicle: saline 99 % of control | dose: 12.5 mg/kg/injection, schedule: Q01DX010 (ip), vehicle: saline 100 % of control | dose: 25.0 mg/kg/injection, schedule: Q01DX005 (ip), vehicle: saline 100 % of control and 123 % of control | dose: 25.0 mg/kg/injection, schedule: Q01DX005 (iv), vehicle: saline 96 % of control | dose: 25.0 mg/kg/injection, schedule: Q01DX010 (ip), vehicle: saline 118 % of control | dose: 50.0 mg/kg/injection, schedule: Q01DX005 (iv), vehicle: saline 98 % of control and 91 % of control | dose: 50.0 mg/kg/injection, schedule: Q01DX010 (ip), vehicle: saline 100 % of control

COC(=O)C(Cc1ccccc1)NC(=O)C(CC(C)C)NC(=O)C(CC(C)C)NC(=O)C(N)CC(C)C (stereo not drawn) (H-LLLF-OMe; configuration not given here)
inactive: [3] 98 % of control | [4] 104 % of control

CC1CC(C)(C)N=C(CCC2CCCC23OCCO3)O1 (stereo not drawn)
inactive: [2] 100 % of control | dose: 100.0 mg/kg/injection, schedule: Q01DX009 (ip), vehicle: saline with Tween-80 104 % of control | dose: 100.0 mg/kg/injection, schedule: Q04DX003 (ip), vehicle: saline sonified 96 % of control | dose: 200.0 mg/kg/injection, schedule: Q01DX009 (ip), vehicle: saline with Tween-80 95 % of control | dose: 200.0 mg/kg/injection, schedule: Q04DX003 (ip), vehicle: saline sonified 96 % of control | dose: 400.0 mg/kg/injection, schedule: Q04DX003 (ip), vehicle: saline sonified 100 % of control

CN1CCC(O)(c2ccccc2)C(O)C1 (stereo not drawn)
inactive: [3] 95 % of control | [4] 93 % of control | dose: 200.0 mg/kg/injection, schedule: Q01DX005 (ip), vehicle: saline with Tween-80 90 % of control
